Structures can show the parent of a compound that is named as a salt.
Biological target: BACE1 enzyme (Homo sapiens (Human), UniProt P56817)
Test: BACE1 efficacy assay (FRET-based, commercial BACE1 kit)
Format: biochemical
Conditions: test compound 10 μM, 3 nM enzyme, 250 nM substrate
Description: The efficacy assay was performed as a FRET-based assay using a commercially available BACE1 kit (Life Technologies, P2985). 2 μl test compound at 10 μM (final concentration) and 15 μl BACE1 enzyme from the kit (final concentration 3 nM) were preincubated for 15 minutes at room temperature before addition of 15 μl of substrate from the kit (250 nM final concentration) and incubated for additional 90 minutes at room temperature. The assay plate was subsequently read in a Pherastar (Ex540/Em590). […] The efficacy of the test compounds was evaluated at 10 μM (final concentration) and defined as the percent inhibition of the enzyme activity using the equation % inhibition=100%−normalized enzyme activity in percent.

Sequence of BACE1 enzyme (P56817 46-501): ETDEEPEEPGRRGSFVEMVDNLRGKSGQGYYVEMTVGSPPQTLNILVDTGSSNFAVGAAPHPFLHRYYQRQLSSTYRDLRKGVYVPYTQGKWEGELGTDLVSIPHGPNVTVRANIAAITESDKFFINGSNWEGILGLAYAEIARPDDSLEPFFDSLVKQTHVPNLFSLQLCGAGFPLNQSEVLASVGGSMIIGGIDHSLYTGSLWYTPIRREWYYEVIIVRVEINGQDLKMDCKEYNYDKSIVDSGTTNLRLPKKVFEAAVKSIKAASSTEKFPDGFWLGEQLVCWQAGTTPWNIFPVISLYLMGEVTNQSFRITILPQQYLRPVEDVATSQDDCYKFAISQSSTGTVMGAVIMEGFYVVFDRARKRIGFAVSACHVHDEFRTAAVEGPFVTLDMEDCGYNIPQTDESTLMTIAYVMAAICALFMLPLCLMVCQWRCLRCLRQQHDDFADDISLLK

inhibition at 10 µM [%]	SMILES
100	Cc1nc(C(=O)Nc2ccc(F)c([C@@]3(C)N=C(N)[C@@](C)(F)CC3(F)F)c2)co1 [Compound 7, N-(3-((2R,5S)-6-amino-3,3,5-trifluoro-2,5-dimethyl-2,3,4,5-tetrahydropyridin-2-yl)-4-fluorophenyl)-2-methyloxazole-4-carboxamide]
92	C[C@@]1(F)CC(F)(F)[C@@](C)(c2cc(NC(=O)c3ccc(Cl)cc3)ccc2F)N=C1N [Compound 44, N-(3-((2R,5R)-6-amino-3,3,5-trifluoro-2,5-dimethyl-2,3,4,5-tetrahydropyridin-2-yl)-4-fluorophenyl)-4-chlorobenzamide]
102	C[C@@]1(F)CC(F)(F)[C@@](C)(c2cc(NC(=O)c3ccc(C(F)(F)F)cn3)ccc2F)N=C1N [Compound 28, N-(3-((2R,5R)-6-amino-3,3,5-trifluoro-2,5-dimethyl-2,3,4,5-tetrahydropyridin-2-yl)-4-fluorophenyl)-5-(trifluoromethyl)picolinamide]
104	C[C@]1(F)CC(F)(F)[C@@](C)(c2cc(NC(=O)c3nccs3)ccc2F)N=C1N [Compound 8, N-(3-((2R,5S)-6-amino-3,3,5-trifluoro-2,5-dimethyl-2,3,4,5-tetrahydropyridin-2-yl)-4-fluorophenyl)thiazole-2-carboxamide]
99	C[C@]1(F)CC(F)(F)[C@@](C)(c2cc(NC(=O)c3coc(C(F)F)n3)ccc2F)N=C1N [Compound 13, N-(3-((2R,5S)-6-amino-3,3,5-trifluoro-2,5-dimethyl-2,3,4,5-tetrahydropyridin-2-yl)-4-fluorophenyl)-2-(difluoromethyl)oxazole-4-carboxamide]
102	C[C@@]1(F)CC(F)(F)[C@@](C)(c2cc(NC(=O)c3ccn(C(F)F)n3)ccc2F)N=C1N [Compound 23, N-(3-((2R,5R)-6-amino-3,3,5-trifluoro-2,5-dimethyl-2,3,4,5-tetrahydropyridin-2-yl)-4-fluorophenyl)-1-(difluoromethyl)-1H-pyrazole-3-carboxamide]
100	C[C@@]1(F)CC(F)(F)[C@@](C)(c2cc(NC(=O)c3nccs3)ccc2F)N=C1N [Compound 36, N-(3-((2R,5R)-6-amino-3,3,5-trifluoro-2,5-dimethyl-2,3,4,5-tetrahydropyridin-2-yl)-4-fluorophenyl)thiazole-2-carboxamide]
102	C[C@@]1(F)CC(F)(F)[C@@](C)(c2cc(NC(=O)c3nc(CF)cs3)ccc2F)N=C1N [Compound 31, N-(3-((2R,5R)-6-amino-3,3,5-trifluoro-2,5-dimethyl-2,3,4,5-tetrahydropyridin-2-yl)-4-fluorophenyl)-4-(fluoromethyl)thiazole-2-carboxamide]
104	Cn1cc(Br)nc1C(=O)Nc1ccc(F)c([C@@]2(C)N=C(N)[C@](C)(F)CC2(F)F)c1 [Compound 37, N-(3-((2R,5R)-6-amino-3,3,5-trifluoro-2,5-dimethyl-2,3,4,5-tetrahydropyridin-2-yl)-4-fluorophenyl)-4-bromo-1-methyl-1H-imidazole-2-carboxamide]
98	COc1cnc(C(=O)Nc2ccc(F)c([C@@]3(C)N=C(N)[C@@](C)(F)CC3(F)F)c2)c(C)n1 [Compound 19, N-(3-((2R,5S)-6-amino-3,3,5-trifluoro-2,5-dimethyl-2,3,4,5-tetrahydropyridin-2-yl)-4-fluorophenyl)-5-methoxy-3-methylpyrazine-2-carboxamide]
100	Cc1nc(C(=O)Nc2ccc(F)c([C@@]3(C)N=C(N)[C@](C)(F)CC3(F)F)c2)no1 [Compound 35, N-(3-((2R,5R)-6-amino-3,3,5-trifluoro-2,5-dimethyl-2,3,4,5-tetrahydropyridin-2-yl)-4-fluorophenyl)-5-methyl-1,2,4-oxadiazole-3-carboxamide]
84	Cc1ncc(C(=O)Nc2ccc(F)c([C@@]3(C)N=C(N)[C@](C)(F)CC3(F)F)c2)o1 [Compound 42, N-(3-((2R,5R)-6-amino-3,3,5-trifluoro-2,5-dimethyl-2,3,4,5-tetrahydropyridin-2-yl)-4-fluorophenyl)-2-methyloxazole-5-carboxamide trifluoroacetic acid salt]
99	[2H]C([2H])([2H])Oc1ccc(C(=O)Nc2ccc(F)c([C@@]3(C)N=C(N)[C@@](C)(F)CC3(F)F)c2)nc1 [Compound 48]
102	COc1cnc(C(=O)Nc2ccc(F)c([C@@]3(C)N=C(N)[C@](C)(F)CC3(F)F)c2)nc1 [Compound 26, N-(3-((2R,5R)-6-amino-3,3,5-trifluoro-2,5-dimethyl-2,3,4,5-tetrahydropyridin-2-yl)-4-fluorophenyl)-5-methoxypyrimidine-2-carboxamide]
102	Cc1csc(C(=O)Nc2ccc(F)c([C@@]3(C)N=C(N)[C@@](C)(F)CC3(F)F)c2)n1 [Compound 10, N-(3-((2R,5S)-6-amino-3,3,5-trifluoro-2,5-dimethyl-2,3,4,5-tetrahydropyridin-2-yl)-4-fluorophenyl)-4-methylthiazole-2-carboxamide]
98	Cc1cn(C)c(C(=O)Nc2ccc(F)c([C@@]3(C)N=C(N)[C@](C)(F)CC3(F)F)c2)n1 [Compound 38, N-(3-((2R,5R)-6-amino-3,3,5-trifluoro-2,5-dimethyl-2,3,4,5-tetrahydropyridin-2-yl)-4-fluorophenyl)-1,4-dimethyl-1H-imidazole-2-carboxamide]
100	C[C@@]1(F)CC(F)(F)[C@@](C)(c2cc(NC(=O)c3ccc(F)cn3)ccc2F)N=C1N [Compound 2, N-(3-((2R,5R)-6-amino-3,3,5-trifluoro-2,5-dimethyl-2,3,4,5-tetrahydropyridin-2-yl)-4-fluorophenyl)-5-fluoropicolinamide]
69	Cc1cc(C(=O)Nc2ccc(F)c([C@@]3(C)N=C(N)[C@](C)(F)CC3(F)F)c2)on1 [Compound 40, N-(3-((2R,5R)-6-amino-3,3,5-trifluoro-2,5-dimethyl-2,3,4,5-tetrahydropyridin-2-yl)-4-fluorophenyl)-3-methylisoxazole-5-carboxamide]
98	Cc1csc(C(=O)Nc2ccc(F)c([C@@]3(C)N=C(N)[C@](C)(F)CC3(F)F)c2)n1 [Compound 27, N-(3-((2R,5R)-6-amino-3,3,5-trifluoro-2,5-dimethyl-2,3,4,5-tetrahydropyridin-2-yl)-4-fluorophenyl)-4-methylthiazole-2-carboxamide]
101	C[C@@]1(F)CC(F)(F)[C@@](C)(c2cc(NC(=O)c3coc(C(F)F)n3)ccc2F)N=C1N [Compound 29, N-(3-((2R,5R)-6-amino-3,3,5-trifluoro-2,5-dimethyl-2,3,4,5-tetrahydropyridin-2-yl)-4-fluorophenyl)-2-(difluoromethyl)oxazole-4-carboxamide]
103	Cn1cc(Br)nc1C(=O)Nc1ccc(F)c([C@@]2(C)N=C(N)[C@@](C)(F)CC2(F)F)c1 [Compound 9, N-(3-((2R,5S)-6-amino-3,3,5-trifluoro-2,5-dimethyl-2,3,4,5-tetrahydropyridin-2-yl)-4-fluorophenyl)-4-bromo-1-methyl-1H-imidazole-2-carboxamide]
102	Cc1nc(C(=O)Nc2ccc(F)c([C@@]3(C)N=C(N)[C@@](C)(F)CC3(F)F)c2)c(C)o1 [Compound 47, N-(3-((2R,5S)-6-amino-3,3,5-trifluoro-2,5-dimethyl-2,3,4,5-tetrahydropyridin-2-yl)-4 fluorophenyl)-2,5-dimethyloxazole-4-carboxamide]
103	C[C@]1(F)CC(F)(F)[C@@](C)(c2cc(NC(=O)c3ccc(OC(F)F)cn3)ccc2F)N=C1N [Compound 45, N-(3-((2R,5S)-6-amino-3,3,5-trifluoro-2,5-dimethyl-2,3,4,5-tetrahydropyridin-2-yl)-4-fluorophenyl)-5-(difluoromethoxy)picolinamide]
74	Cn1ccc(C(=O)Nc2ccc(F)c([C@@]3(C)N=C(N)[C@](C)(F)CC3(F)F)c2)n1 [Compound 39, N-(3-((2R,5R)-6-amino-3,3,5-trifluoro-2,5-dimethyl-2,3,4,5-tetrahydropyridin-2-yl)-4-fluorophenyl)-1-methyl-1H-pyrazole-3-carboxamide]
102	Cc1nc(C(=O)Nc2ccc(F)c([C@@]3(C)N=C(N)[C@](C)(F)CC3(F)F)c2)co1 [Compound 34, N-(3-((2R,5R)-6-amino-3,3,5-trifluoro-2,5-dimethyl-2,3,4,5-tetrahydropyridin-2-yl)-4-fluorophenyl)-2-methyloxazole-4-carboxamide]
100	C[C@]1(F)CC(F)(F)[C@@](C)(c2cc(NC(=O)c3ccn(C(F)F)n3)ccc2F)N=C1N [Compound 6, N-(3-((2R,5S)-6-amino-3,3,5-trifluoro-2,5-dimethyl-2,3,4,5-tetrahydropyridin-2-yl)-4-fluorophenyl)-1-(difluoromethyl)-1H-pyrazole-3-carboxamide]
101	C[C@@]1(F)CC(F)(F)[C@@](C)(c2cc(NC(=O)c3ccc(C#N)cn3)ccc2F)N=C1N [Compound 32, N-(3-((2R,5R)-6-amino-3,3,5-trifluoro-2,5-dimethyl-2,3,4,5-tetrahydropyridin-2-yl)-4-fluorophenyl)-5-cyanopicolinamide]
94	[2H]C([2H])([2H])Oc1ccc(C(=O)Nc2ccc(F)c([C@@]3(C)N=C(N)[C@](C)(F)CC3(F)F)c2)nc1 [Compound 43, N-(3-((2R,5R)-6-amino-3,3,5-trifluoro-2,5-dimethyl-2,3,4,5-tetrahydropyridin-2-yl)-4-fluorophenyl)-5-(methoxy-d3)picolinamide]
